The results in this text go back to US12398093B2, “Compounds and methods for treating inflammatory disorders” (Board of Supervisors of Louisiana State University and …, priority 2019, dated 2025).

One data set has as its target T1, human 5-HT2A receptor (Homo sapiens, UniProt P28223).
T1 construct: expressed in transfected cells
Description: Gq-mediated calcium transients (calcium mobilization), Fluo-4, HEK cells. The data set is classed as cell-based. Background: Calcium assays in cells follow changes in intracellular calcium, usually with a dye or a luminescent sensor.

The next data set concerns the target T2, 5-HT2AR-Tango construct (Homo sapiens, UniProt P28223).
T2 construct: expressed in transfected cells; host or cells: HTLA cells (transient transfection)
Description: β-arrestin-2 recruitment, PRESTO-Tango assay in HTLA cells. The data set is classed as cell-based. Particulars: for Emax: HTLA. (In general: Recruitment of arrestin is a read-out of receptor activation apart from second messengers.)

Data set [1] relates to adult male Brown Norway rats. Put plainly: Ovalbumin allergic asthma model, whole body plethysmography (ΔPenh) after methacholine challenge. Particulars: for Prevention of AHR (ΔPenh/PenH) in response to OVA: rats. The data set is classed as in vivo. The text has this:
A modification of the ovalbumin model of allergic asthma and whole body plethysmography protocol as described in Nau et al. (Am. J. Physiol. Lung Cell Mol. Physiol. 2015, 308(2): L191-L198; incorporated herein by reference) was used to determine ΔPenh, a measure of airways hyperresponsiveness (AHR), in response to methacholine challenge in adult male Brown Norway rats. Results, shown in FIGS. 2A-2G, represent PenH change measured in the ovalbumin allergic asthma assay in rats, with the exception of FIG. 2C, which was measured in mice, for nebulized inhaled drug. Statistics were performed using 2-way ANOVA with Tukey post hoc test for multiple comparisons.
Allergic asthma is defined as a chronic inflammatory disorder of the airways. This disease is characterized by airway inflammation, persistent airways AHR and intermittent, reversible airways obstruction.
Area under the curve of PenH values (PenH-AUC) in response to incremental doses of metacholine were calculated for each testing groups, naïve, OVA treated, and OVA+DRUG treated animals. A reduction in PenH-AUC values of more than 75% of the control values (OVA alone) was annotated as a strong efficacy. […] Additional to this information are provided the relative to R-DOI EC50 values (ratio) of tested compounds in 5-HT2AR heterologous cell-based calcium transient assay. […] FIG. 3 illustrates the non-correlative nature of the therapeutic efficacy of the phenylethylamines class of compounds against inflammatory-mediated allergen-induced AHR and the reported evidences of the dose necessary for psychoactive disturbances experienced with these compounds in humans or the potency and strength of these compounds to the 5-HT2AR in calcium transients assays.
Inhibition of ΔPenh as a function of 2C-iBu concentration was studied by nebulization nose-only administration of 2C-iBu to male adult Brown Norway rats as described above. Area under the curve for each treatment group at a given dose of 2C-iBu for ΔPenh is plotted on the Y-axis versus concentration of 2C-iBu on the X-axis.

Data set [2] in a line: In vitro absorption, Caco-2 permeability. The data set is classed as in vitro ADME. The conditions noted are these: human, Caco-2, pH 6.5, Caco-2, pH 6.5/7.4, 1.0×10^−5 M. Background: Passage across Caco-2 layers is used to estimate intestinal permeability.
The target in another data set is 5-HT2B (h) (Homo sapiens, UniProt P41595). Put plainly: Radioligand binding, agonist radioligand [125I](±)DOI.
5-HT2B (h), sequence (P41595 whole entry): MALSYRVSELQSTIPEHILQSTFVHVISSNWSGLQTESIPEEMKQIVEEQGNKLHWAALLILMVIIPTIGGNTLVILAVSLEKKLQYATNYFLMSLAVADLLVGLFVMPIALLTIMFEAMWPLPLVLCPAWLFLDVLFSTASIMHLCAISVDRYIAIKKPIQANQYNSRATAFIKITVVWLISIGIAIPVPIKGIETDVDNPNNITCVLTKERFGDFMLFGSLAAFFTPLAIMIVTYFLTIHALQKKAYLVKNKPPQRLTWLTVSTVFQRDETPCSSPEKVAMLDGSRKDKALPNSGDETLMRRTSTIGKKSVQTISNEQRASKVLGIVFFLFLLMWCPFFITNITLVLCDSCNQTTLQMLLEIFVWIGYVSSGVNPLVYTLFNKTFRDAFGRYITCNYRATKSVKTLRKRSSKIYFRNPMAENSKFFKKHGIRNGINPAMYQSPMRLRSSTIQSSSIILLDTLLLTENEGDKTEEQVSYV
A further data set concerns the target T3, 5-HT2C (h) (Homo sapiens, UniProt P28335).
T3 sequence (P28335 33-458): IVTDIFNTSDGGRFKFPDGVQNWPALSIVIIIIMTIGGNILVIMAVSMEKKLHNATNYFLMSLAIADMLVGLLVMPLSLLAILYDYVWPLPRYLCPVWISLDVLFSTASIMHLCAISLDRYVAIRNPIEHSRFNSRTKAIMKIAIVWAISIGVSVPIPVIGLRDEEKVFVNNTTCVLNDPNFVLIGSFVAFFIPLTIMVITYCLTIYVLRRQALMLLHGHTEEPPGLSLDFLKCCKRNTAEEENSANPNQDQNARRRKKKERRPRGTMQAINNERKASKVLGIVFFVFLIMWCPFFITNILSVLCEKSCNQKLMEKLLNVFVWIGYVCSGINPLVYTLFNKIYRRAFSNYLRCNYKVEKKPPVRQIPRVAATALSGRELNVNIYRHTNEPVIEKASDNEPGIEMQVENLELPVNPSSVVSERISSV
The data set is described as above.

[3] abbreviates: HEK293, read-out: EMAX (%) calcium mobilization.
The mark [4] stands for this setting: read-out: EMAX (%) beta arrestin recruitment.
[5] abbreviates: read-out: A-B Permeability, 1st.
The mark [6] stands for this setting: read-out: A-B Permeability, 2nd.
The mark [7] stands for this setting: read-out: A-B Permeability, Mean.
Setting [8] is: read-out: B-A Permeability, 1st.
Setting [9] is: read-out: B-A Permeability, 2nd.
Setting [10] is: read-out: B-A Permeability, Mean.

Like-named read-outs stand apart in the source and are kept apart here.

T2 sequence (P28223 whole entry, added parts left off): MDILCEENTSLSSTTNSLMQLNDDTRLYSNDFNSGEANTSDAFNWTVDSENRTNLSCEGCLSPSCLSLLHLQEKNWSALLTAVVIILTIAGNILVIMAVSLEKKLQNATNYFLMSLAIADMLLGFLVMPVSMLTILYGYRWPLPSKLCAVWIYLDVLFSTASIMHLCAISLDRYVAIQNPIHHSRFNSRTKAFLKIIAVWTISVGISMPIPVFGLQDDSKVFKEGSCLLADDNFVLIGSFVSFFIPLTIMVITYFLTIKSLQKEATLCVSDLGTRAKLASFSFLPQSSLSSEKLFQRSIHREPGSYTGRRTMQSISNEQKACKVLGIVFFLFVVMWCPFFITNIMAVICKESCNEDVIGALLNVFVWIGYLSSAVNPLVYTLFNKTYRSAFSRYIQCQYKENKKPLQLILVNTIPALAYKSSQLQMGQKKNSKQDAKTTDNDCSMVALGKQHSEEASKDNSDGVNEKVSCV
T2 sequence (P32121 whole entry partner): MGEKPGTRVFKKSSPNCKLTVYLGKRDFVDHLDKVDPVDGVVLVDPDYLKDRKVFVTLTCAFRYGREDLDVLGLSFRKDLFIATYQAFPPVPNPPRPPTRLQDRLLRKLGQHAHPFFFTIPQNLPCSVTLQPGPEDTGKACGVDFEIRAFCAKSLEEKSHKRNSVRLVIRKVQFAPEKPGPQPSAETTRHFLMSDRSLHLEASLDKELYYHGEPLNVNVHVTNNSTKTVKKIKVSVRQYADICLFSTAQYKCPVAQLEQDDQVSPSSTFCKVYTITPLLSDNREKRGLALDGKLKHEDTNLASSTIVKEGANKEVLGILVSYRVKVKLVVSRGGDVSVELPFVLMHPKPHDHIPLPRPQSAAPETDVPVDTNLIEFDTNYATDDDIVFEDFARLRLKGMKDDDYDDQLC
T1 sequence (P28223 whole entry): as the sequence (P28223 whole entry, added parts left off) above

On to `COc1cc(CC(C)C)c(OC)cc1CCN` [2C-iBu, 2,5-dimethoxy-4-isobutylphenethylamine], for which the EC50 (in general, the midpoint of the concentration-response curve) is 2.19 nM at human 5-HT2A receptor and 13.5 nM at 5-HT2AR-Tango construct. Besides, the Emax (commonly the maximal effect, on the per cent scale that the assay sets) at human 5-HT2A receptor (setting [3]) is 88%; on human 5-HT2A receptor (HEK293, read-out: EMAX Ca^2+), 103%; on 5-HT2AR-Tango construct (Table 3, read-out: EMAX β-arrestin-2) it was 77%; at 5-HT2AR-Tango construct (setting [4]), 57.4%. For the same compound, the 50% effective dose (ED50) (usually the dose that gives a 50% effect, or the effect in half of the subjects) in data set [1] (Rattus norvegicus, nebulization nose-only administration, rats (FIG. 4), read-out: ED50, inhibition of ΔPenh (AUC)) amounted to 2.7 µg/kg. The “Prevention of AHR (ΔPenh/PenH) in response to OVA” value in data set [1] (dose not printed (FIG. 2G)) was “did not result in a decrease in efficacy compared to (R)-DOI”. Moreover, the recovery in data set [2] (read-out: % Recovery A-B, 1st) was determined as 45%; in data set [2] (read-out: % Recovery A-B, 2nd), 48%; in data set [2] (read-out: % Recovery A-B, Mean), 46%; in data set [2] (read-out: % Recovery B-A, 1st) it was 70%; in data set [2] (read-out: % Recovery B-A, 2nd), 72%; in data set [2] (read-out: % Recovery B-A, Mean) it was 71%. Besides, the Papp A→B worked out at 10.9 ×10⁻⁶ cm/s in data set [2] (setting [5]), 10.6 ×10⁻⁶ cm/s in data set [2] (setting [6]) and 10.7 ×10⁻⁶ cm/s in data set [2] (setting [7]). In addition, the Papp B→A in data set [2] (setting [8]) was 7.87 ×10⁻⁶ cm/s; in data set [2] (setting [9]), 7.92 ×10⁻⁶ cm/s; in data set [2] (setting [10]) it was 7.9 ×10⁻⁶ cm/s. Besides, the Ki (usually the equilibrium dissociation constant of an inhibitor or competing ligand from its target) on 5-HT2B (h) is 15.8 nM; at 5-HT2C (h), 0.251 nM.

Regarding `COc1cc(C[C@@H](C)N)c(OC)cc1I` [R-DOI], the Emax on human 5-HT2A receptor (setting [3]) is 112%; on 5-HT2AR-Tango construct (setting [4]) it was 71.8%. The “Prevention of AHR (ΔPenh/PenH) in response to OVA” value in data set [1] (1.0 mg/kg, nebulized inhaled drug) is “full efficacy at preventing AHR”. For the same compound, the recovery in data set [2] (read-out: % Recovery A-B, 1st) was 72%; in data set [2] (read-out: % Recovery A-B, 2nd), 72%; in data set [2] (read-out: % Recovery A-B, Mean) it was 72%; in data set [2] (read-out: % Recovery B-A, 1st) it was 87%; in data set [2] (read-out: % Recovery B-A, 2nd) it was 88%; in data set [2] (read-out: % Recovery B-A, Mean) it was 87%. For the same compound, the Papp A→B in data set [2] (setting [5]) worked out at 23.7 ×10⁻⁶ cm/s; in data set [2] (setting [6]) it was 23.2 ×10⁻⁶ cm/s; in data set [2] (setting [7]) it was 23.4 ×10⁻⁶ cm/s. Moreover, the Papp B→A in data set [2] (setting [8]) is 19.1 ×10⁻⁶ cm/s; in data set [2] (setting [9]), 19.3 ×10⁻⁶ cm/s; in data set [2] (setting [10]), 19.2 ×10⁻⁶ cm/s. In addition, the inhibitory constant (Ki) on 5-HT2B (h) is 2.51 nM; at 5-HT2C (h) it was 0.631 nM.
